Literature values in article PMC4168221 (Clinical Drug Investigation, 2014).

Tested on: urinary glucose excretion
Details: cited from earlier work

## OC[C@H]1O[C@@H](c2ccc(F)c(Cc3cc4ccccc4s3)c2)[C@H](O)[C@@H](O)[C@@H]1O [Ipragliflozin]
  UGE in each estimated GFR (eGFR) class: significantly increased
